What was measured:
Type in all cases: cell-based, human
[1] = test system: IL-6; experiment: IL-6 ELISA of conditioned media from X-irradiated senescent HCA2 fibroblasts; conditions: for IL-6 secretion, varying concentrations: added immediately after irradiation, 6 days
Procedure: To validate glucocorticoids as SASP regulators, they were added within 15 min after irradiation (unless otherwise indicated). For cells induced to senesce by MKK6 or RAS overexpression, glucocorticoid treatment started 16 hours after infection. Glucocorticoids were re-added in fresh media every other day. Six days after irradiation or selection, cells were given serum-free DMEM with or without glucocorticoid for 24 hours; the conditioned media were collected and frozen for ELISAs.
Conditioned media were filtered and stored at −80° C. Cell numbers were determined in every experiment. ELISAs were performed using kits and procedures from PerkinElmer (IL-6 AL223F). Data were normalized and expressed as pg/ml/cell/24 h.
To confirm the ability of corticosterone to suppress senescence-associated IL-6 secretion, fresh HCA2 fibroblast cultures were prepared, and senescence was induced by X-irradiation (10 Gy). Under these conditions, cells undergo growth arrest within 24-48 hours, but require 4-5 days before SASP components are detected in the medium (Coppe et al., 2008, PLoS Biol. 6:2853-2868; Rodier et al., 2009, Nature Cell Biol. 11:973-979; Coppe et al., 2010, PLoS ONE 5:e9188; Freund et al., 2011, EMBO J. 30:1536-1548). Varying concentrations of corticosterone were added immediately after irradiation, and the cells were maintained in the drug for 6 days. On the 6th day, the cells were incubated in serum-free medium with or without corticosterone, the conditioned medium was collected 24 h later, and the medium was assayed for IL-6 by ELISA. […] The ability of corticosterone to suppress IL-6 secretion by senescent cells was not peculiar to HCA2 cells.

[2] = test system: IL-6; experiment: Initial drug screen (Prestwick Chemical Library), IL-6 ELISA of medium; conditions: 2.5 μM, 48 hours, HCA2 fibroblasts, 0.2% serum
Procedure: The initial drug screen was performed in a 96-well format using automated liquid handling with a Biomek FX (Beckman Coulter, CA). Senescent cells were plated 24 hours after X-irradiation at 7,500 cells per well in 96-well plates. Six days after plating the senescent cells, the pre-senescent cells were plated at 7,500 cells per well in 96-well plates. Twenty-four hours after pre-senescent plating, both pre-senescent and senescent cells were washed and incubated in low (0.2%) serum for 48 hours to arrest cell proliferation of the pre-senescent cells. […] Forty-eight hours after compound addition, the medium in each well was removed and frozen for assay by ELISA to quantitate the levels of IL-6. The cells, which remained in the wells after the medium was removed, were lysed and ATP levels were measured (ATPlite 1-step assay, Perkin Elmer, MA) to exclude compounds that lowered IL-6 through toxicity (cell death). Experimental wells in each plate were normalized to plate mean or same-plate DMSO controls for the ELISA and ATP assays, respectively.
To identify small molecules that may be potential SASP modulators, a screening strategy that entailed administering compounds to parallel 96-well plates containing human fibroblasts (strain HCA2) that were either quiescent or senescent was developed. […] After 48 hours, the medium from each well was removed, and the cells were lysed. […] Cell lysates were assayed for ATP as a surrogate for cell number.

[3] = test system: SASP; experiment: Antibody arrays of conditioned media (120 cytokines and growth factors, SASP); conditions: 500 nM corticosterone or 100 nM cortisol
Procedure: Cultures were washed and incubated in serum-free DMEM for 24 hours and the conditioned media were diluted to equivalent cell numbers using DMEM. Antibody arrays from Raybiotech (AAH-CYT-G1000-8) were used according to the manufacturer's instructions. Arrays were scanned using a GenePix 4200A Professional microarray scanner. Signal intensities were quantitated using LI-COR Odyssey software and normalized to positive controls for each sample, which were then normalized across all samples, as previously described (Freund et al., 2011, EMBO J. 30:1536-1548).
To determine whether or not, or to what extent corticosterone or cortisol suppressed the entire SASP, antibody arrays were used to interrogate the relative secretion of 120 cytokines and growth factors. Presenescent and senescent cells were incubated with 500 nM corticosterone or 100 nM cortisol (FIG. 12C).

SMILES | reduction of IL-6 secretion ([1]; 20 nM corticosterone) | maximal suppression of IL-6 secretion ([1]; 500 nM corticosterone) [%] | IL-6 secretion, continuous exposure ([1]; 500 nM, continuous exposure for 7 days after irradiation) | IL-6 secretion, short exposure ([1]; 500 nM, pretreatment before X-irradiation, or only 24 hours immediately after irradiation or after establishment of the SASP (7 days)) | IL-6 secretion, varying concentrations [1] | IL-6 secretion (ELISA) [2] | secretion of growth and angiogenic factors [3] | secretion of pro-inflammatory cytokines and chemokines [3] | suppression of all components of the SASP [3] | reduction of senescence-associated IL-6 secretion ([1]; 100 nM cortisol) [%] | IC50 ([1]; Homo sapiens, HCA2, sub-nM concentrations, read-out: concentration reducing senescence-associated IL-6 secretion by 50%) [nM]
C[C@]12C[C@H](O)[C@H]3[C@@H](CCC4=CC(=O)CC[C@@]43C)[C@@H]1CC[C@@H]2C(=O)CO [corticosterone] | approximately 50% | > 90 | strongly suppressed IL-6 secretion | had no effect on IL-6 secretion | decreased IL-6 secretion in a dose-dependent manner | suppressed IL-6 secretion | suppressed the secretion of several growth and angiogenic factors such as VEGF | strongly suppressed the secretion of several pro-inflammatory cytokines and chemokines, including IL-6, IL-8, GM-CSF and MCP-2 | Neither glucocorticoid suppressed all components of the SASP | – | –
C[C@]12CCC(=O)C=C1CC[C@@H]1[C@@H]2[C@@H](O)C[C@@]2(C)[C@H]1CC[C@]2(O)C(=O)CO [cortisol] | – | – | – | – | decreased IL-6 secretion in a dose-dependent manner, and was more potent than corticosterone | suppressed IL-6 secretion | suppressed the secretion of several growth and angiogenic factors such as VEGF | strongly suppressed the secretion of several pro-inflammatory cytokines and chemokines, including IL-6, IL-8, GM-CSF and MCP-2 | Neither glucocorticoid suppressed all components of the SASP | > 90 | 0.16 to 0.8

Reference: patent US9884065B2, “Inhibiting activity of senescent cells using a glucocorticoid” (Buck Institute for Research on Aging, priority 2011, dated 2018)
